Test results reported in BindingDB's records for doi:10.1016/j.bmcl.2004.01.094 (Arqule, 2004).

Assays:
[1] = target: Methionyl-tRNA synthetase (Staphylococcus aureus); test: Inhibition of Staphylococcus aureus methionyl-tRNA synthetase (SaMetRS)
[2] = target: Methionyl-tRNA synthetase (Enterococcus faecalis); test: Inhibition of Enterococci faecalis methionyl-tRNA synthetase (EfMetRS)
[3] = target: Methionyl-tRNA synthetase (Staphylococcus aureus); test: Inhibition of Staphylococcus aureus methionyl-tRNA synthetase (SaMetRS); remark: listed apart in the source

Structure (SMILES)	IC50 [1] [nM]	IC50 [2] [nM]	IC50 [3] [nM]
NC(=O)[C@H](Cc1ccc(O)cc1)NC(=O)[C@@H]1CCCN1/C=C1\N=C(c2ccc(Cl)cc2Cl)OC1=O [(S)-1-[2-(2,4-Dichloro-phenyl)-5-oxo-oxazol-(4Z)-ylidenemethyl]-pyrrolidine-2-carboxylic acid [(S)-1-carbamoyl-2-(4-hydroxy-phenyl)-ethyl]-amide]	680	14000	–
NC(=O)[C@H](Cc1ccc(O)cc1)NC(=O)[C@@H]1CCCN1/C=C1\N=C(c2ccc(Br)cc2)OC1=O [(S)-1-[2-(4-Bromo-phenyl)-5-oxo-oxazol-(4Z)-ylidenemethyl]-pyrrolidine-2-carboxylic acid [(S)-1-carbamoyl-2-(4-hydroxy-phenyl)-ethyl]-amide]	–	48000	1100
CCC/C(=C1/N=C(c2ccc(Br)cc2)OC1=O)N1CC[C@H]1C(=O)N[C@@H](Cc1ccc(O)cc1)C(N)=O [(S)-1-{1-[2-(4-Bromo-phenyl)-5-oxo-oxazol-(4Z)-ylidene]-butyl}-azetidine-2-carboxylic acid [(S)-1-carbamoyl-2-(4-hydroxy-phenyl)-ethyl]-amide]	87	–	–

Continued by falling IC50 [2], values first:

IC50 [1] [nM]	IC50 [2] [nM]	IC50 [3] [nM]	Structure (SMILES)
850	5930	–	CC/C(=C1/N=C(c2ccc(Br)cc2)OC1=O)N1CCC[C@H]1C(=O)N[C@@H](Cc1ccc(O)cc1)C(N)=O [(S)-1-{1-[2-(4-Bromo-phenyl)-5-oxo-oxazol-(4Z)-ylidene]-propyl}-pyrrolidine-2-carboxylic acid [(S)-1-carbamoyl-2-(4-hydroxy-phenyl)-ethyl]-amide]
–	3110	760	CCC/C(=C1/N=C(c2ccc(Br)cc2)OC1=O)N1CCC[C@H]1C(=O)N[C@@H](Cc1ccc(O)cc1)C(N)=O [(S)-1-{1-[2-(4-Bromo-phenyl)-5-oxo-oxazol-(4Z)-ylidene]-butyl}-pyrrolidine-2-carboxylic acid [(S)-1-carbamoyl-2-(4-hydroxy-phenyl)-ethyl]-amide]
510	1400	–	NC(=O)[C@H](Cc1ccc(O)cc1)NC(=O)[C@@H]1CCN1/C=C1\N=C(c2ccc(Br)cc2)OC1=O [(S)-1-[2-(4-Bromo-phenyl)-5-oxo-oxazol-(4Z)-ylidenemethyl]-azetidine-2-carboxylic acid [(S)-1-carbamoyl-2-(4-hydroxy-phenyl)-ethyl]-amide]
